We go through eleven compounds from patent US5955493A, “Thiamorphinans with neuroprotective activity” (priority 1995, dated 1999).

One data set has as its system NMDA-induced convulsion. The experiment in a line: Inhibition of NMDA-induced convulsion (i.c.v. coinjection). The format is in vivo, Male Swiss Webster mice. How it is done: Male Swiss Webster mice [(SW) fBR] 20-25 g (Canadian Breading Farms St. Constant, Quebec), were coinjected intracerebroventricullarly (i.c.v.) with various doses of test compound and NMDA (1 and 2 nmol; Sigma Chemical Co., St. Louis, Mo.) in total volume of 10 μl. […] The convulsive response to NMDA was within 5 minutes of injection, characterized by wild running, popcorn jumping and myoclonic seizures (i.e. repetitive movements involving all limbs simultaneously, usually accompanied by loss of righting reflex). A minimum of 15 animals were used in each treatment group. The number of mice convulsing in each group was recorded. The dose producing convulsions in 50% of the mice (CD50) was calculated by the method of Litchfield and Wilcoxon ("Manual and Pharmacological Calculations with Computer Programs", 2nd ed., Springer, N.Y., 1987).

Data set [1] has as its system Mice. The experiment in a line: Rotarod test (motor effects). The settings on record: i.c.v.; for Max. % mice showing motor effect: rotarod 8 revolutions per min, *P ≤ 0.05 as compared with control. The format is in vivo. From the text:
The rotarod treadmill for mice (model 7600, UGO Basile, Italy) was used to assess the motor effects of the test compounds. The method used was similar to the procedure described by Dunham and Miya (J. Am. Pharmac. Assoc., 1957, 46:208). The apparatus consisted of a rod with a diameter of 2.5 cm which was suspended horizontally 50 cm above a plain working area. The rod was turned at a speed of 8 revolutions per min. Circular perspex separators were placed at intervals along the rod so that five animals could be tested at the same time. Before administering any compound, all tested mice were placed on the turning rod for 1 min on two consecutive days. Mice that fell from the rod during this test were excluded. The test compounds were administered i.c.v. and the % of mice showing motor effects was monitored.

For data set [2], the system named is Mice. In words: Locomotion and falling behavior. The format is in vivo. The conditions noted are these: i.c.v.; for % mice showing significant effect (falling): at min. dose for falling; for % mice showing significant effect (locomotion): at min. dose for locomotion; for min. dose for falling / min. dose for locomotion: observed 15 to 30 min after injection. How it is done: Mice were placed individually in observation cages for a 60 minute habituation period, injected i.c.v. with the different compounds and observed from 15 to 30 min. after injection. Locomotion and falling behavior were assessed according to the procedure of Koek and Colpaert (J. Pharm. Exp. Ther., 1990, 252:349). For each mouse the presence of locomotion (locomotion with all four legs moving for at least 15 seconds) and falling behavior (falling from rearing or standing position backward or to the side) was recorded. Statistical significance of drug-induced changes in the occurrence of a particular behavior was tested by the method of Fray et al […].

Data set [3] relates to Bicuculline-induced convulsions. The experiment in a line: Inhibition of bicuculline-induced convulsions. The conditions noted are these: i.c.v. The format is in vivo, Male Swiss Webster mice. How it is done: (§1) Male Swiss Webster mice [(SW) fBR]20-25 g, were coinjected intracerebroventricullarly (i.c.v.) with various doses of test compounds, α- and β-sulfallorphan, with AMPA (0.25-2.0) nmol; Research Biochemical Inc.) kainic acid (0.25-0.75 nmol; Sigma Chemical Co.) and biculline (1-10 nmol; Research Biochemical Inc.) in total volume of 10 μl. […] The convulsive response to the AMPA, kainic acid and biculline was within 5 minutes of injection, characterized by wild running, popcorn jumping and myoclonic seizures (i.e. repetitive movements involving all limbs simultaneously, usually accompanied by loss of righting reflex). A minimum of 15 animals were used in each treatment group. The number of mice convulsing in each group was recorded. The dose producing convulsions in 50% of the mice (CD50) was calculated by the method of Litchfield and Wilcoxon. LD50, the dose producing mortality in 50% of the mice, was determined by Fisher's exect test. The results for both α- and β-sulfallorphan are summarized below in tables II and III.

Data set [4] concerns Kainic acid-induced convulsions. The experiment in a line: Inhibition of kainic acid-induced convulsions. The format is in vivo, Male Swiss Webster mice. The settings on record: i.c.v. How it is done: as §1
In another data set the test system is AMPA-induced convulsions. In words: Inhibition of AMPA-induced convulsions. The settings on record: i.c.v. Format: in vivo, Male Swiss Webster mice. How it is done: as §1, with “[…];” for “with AMPA (0.25-2.0) nmol;”

`C=CC[S+]1CC[C@]23CCCC[C@H]2[C@H]1Cc1ccc(O)cc13` (relative stereo) [compound 12, 3-hydroxy-17-deaza-17-allylthionium-17-thiamorphinan]: the CD50 in the data set with NMDA-induced convulsion (1 nmol NMDA) amounted to 0.07 nmol/mouse.
Compound `CC(C)=CC[S+]1CC[C@]23CCCC[C@H]2[C@H]1Cc1ccc(O)cc13` (relative stereo) [compound 13, 3-hydroxy-17-deaza-17-dimethylallylthionium-17-thiamorphinan] had a CD50 in the data set on NMDA-induced convulsion (1 nmol NMDA) of 0.19 nmol/mouse. Besides, in the data set on Mice [1], the “Max. % mice showing motor effect” value came to 0%.
Compound `Oc1ccc2c(c1)[C@@]13CCCC[C@H]1[C@@H](C2)[S+](CCc1ccccc1)CC3` (relative stereo) [compound 14, 3-hydroxy-17-deaza-17-phenethylthionium-17-thiamorphinan] yielded a CD50 with NMDA-induced convulsion (1 nmol NMDA) of 0.99 nmol/mouse. For the same compound, in the data set on Mice [1], the “Max. % mice showing motor effect” value turned out to be 20%.
`C[S+]1CC[C@]23CCCC[C@H]2[C@H]1Cc1ccc(O)cc13` (relative stereo) [compound 17, 3-hydroxy-17-deaza-17-methylthionium-17-thiamorphinan]: the CD50 in the data set with NMDA-induced convulsion (1 nmol NMDA) is on record as 0.02 nmol/mouse. Besides, the “Max. % mice showing motor effect” value in the data set with Mice [1] is on record as 60%.
With `C[C@]12N[C@H](Cc3ccccc31)c1ccccc12` [MK-801], in the data set on Mice [2], the “% mice showing significant effect (falling)” value is listed as 50%, the “% mice showing significant effect (locomotion)” value is on record as 30%, the “min. dose for falling” value worked out at 1.50 nmol/mouse and the “min. dose for locomotion” value is on record as 0.25 nmol/mouse.
Consider `C=CCN1CC[C@@]23CCCC[C@@H]2[C@@H]1Cc1ccc(O)cc13` [dextrallorphan], for which the CD50 in the data set with NMDA-induced convulsion (1 nmol NMDA) was found to be 2.68 nmol/mouse; with NMDA-induced convulsion (2 nmol NMDA) it was 43.2 nmol/mouse.
In the case of `COc1ccc2c(c1)[C@]13CCCC[C@@H]1[C@H](C2)N(C)CC3` [dextromethorphan], in the data set with Mice [2], the “% mice showing significant effect (falling)” value stood at 27%, the “% mice showing significant effect (locomotion)” value worked out at 30%, the “min. dose for falling” value was 0.20 nmol/mouse and the “min. dose for locomotion” value stood at 0.10 nmol/mouse.
`CN1CC[C@@]23CCCC[C@@H]2[C@@H]1Cc1ccc(O)cc13` [dextrorphan, reference compound]: the CD50 in the data set on NMDA-induced convulsion (1 nmol NMDA) was 0.55 nmol/mouse; with NMDA-induced convulsion (2 nmol NMDA), above 100 nmol/mouse. The “Max. % mice showing motor effect” value in the data set with Mice [1] is recorded as 60%. Besides, the “motor effect (statement)” value with Mice [1] (α-sulfallorphan 30 nmol/mouse, dextrorphan 60 nmol/mouse) is “induces a significant rise in motor effect”.
In the case of `C=CCN1CC[C@]23CCCC[C@H]2[C@H]1Cc1ccc(O)cc13` [levallorphan], the results for the CD50 in the data set on NMDA-induced convulsion (1 nmol NMDA) and with NMDA-induced convulsion (2 nmol NMDA) were 1.06 nmol/mouse and above 20 nmol/mouse, respectively.
For the compound `CN1CC[C@]23CCCC[C@H]2[C@H]1Cc1ccc(O)cc13` [levorphanol], the CD50 is 0.21 nmol/mouse in the data set with NMDA-induced convulsion (1 nmol NMDA) and above 200 nmol/mouse in the data set on NMDA-induced convulsion (2 nmol NMDA).
As for `C=CC[S+]1CC[C@]23CCCC[C@H]2[C@H]1Cc1ccc(O)cc13` (stereo partly drawn) [β-sulfallorphan 16, 3-hydroxy-17-deaza-17-allylthionium-17-thiamorphinan], the CD50 is recorded as 0.015 nmol/mouse in the data set on NMDA-induced convulsion (1 nmol NMDA); 0.28 nmol/mouse in the data set on NMDA-induced convulsion (2 nmol NMDA); 3.12 nmol/mouse in data set [3] (CD50 of bicuculline (1-10 nmol/mouse) with 0.4 nmol/mouse β-sulfallorphan); 0.39 nmol/mouse in data set [4] (CD50 of kainic acid (0.25-0.72 nmol/mouse) with 0.4 nmol/mouse β-sulfallorphan); 0.29 nmol/mouse in the data set with AMPA-induced convulsions (CD50 of AMPA (0.25-5 nmol/mouse) with 0.4 nmol/mouse β-sulfallorphan). In addition, the “Max. % mice showing motor effect” value in the data set on Mice [1] worked out at 20%. Besides, the LD50 entry in data set [3] (LD50 of bicuculline (1-10 nmol/mouse) with 0.4 nmol/mouse β-sulfallorphan, none = no mortality observed at dose tested) is recorded as “none”; in data set [4] (LD50 of kainic acid (0.25-0.72 nmol/mouse) with 0.4 nmol/mouse β-sulfallorphan, none = no mortality observed at dose tested), “none”; in the data set with AMPA-induced convulsions (LD50 of AMPA (0.25-5 nmol/mouse) with 0.4 nmol/mouse β-sulfallorphan, none = no mortality observed at dose tested), “none”. Further, the “% mice showing significant effect (locomotion)” value in the data set with Mice [2] is listed as 20%. Besides, the “locomotion and falling behavior (statement)” value in the data set on Mice [2] was “less locomotion than dextromethorphan and required greater amount to exhibit a significant effect”. Moreover, the “min. dose for falling” value with Mice [2] is on record as “no effect”. In the data set on Mice [2], the “min. dose for locomotion” value amounted to 1.25 nmol/mouse.
